Experimental data reported in patent publication US20250011332A1, “PYRAZOLO FUSED RING COMPOUND AND USE THEREOF” (SOTER BIOPHARMA PTE. LTD., priority 2021, published 2025).

Key:
[1] = test system: IL-23 induced psoriasis-like skin lesions in mice; assay: In vivo drug efficacy test in mouse psoriasis model (IL-23 induced auricular epidermal dysplasia); parameters: species or system C57BL/6 mice; Ear comprehensive score: scale not given here; details: for Ear weight: end of experiment (Day 10), 8 mm punch
Text: Purpose: The purpose of this experiment is to evaluate the preventive and therapeutic effect of the test substance on IL-23 induced psoriasis-like skin lesions in mice through the psoriasis-like skin lesions model induced by intradermal injection of IL-23 into the mouse auricle.
Method: After the adaptation period of experimental animals, 50 mice were divided into 5 groups according to the Excel completely random grouping method, with 10 mice in each group, as follows: vehicle (0.5% MC & 0.5% Tween 80) control group, modeling group, compound 1 (10, 20, 50 mg/kg) group. Except for the vehicle control group, the animals in the other groups were intradermally injected with IL-23 (3 μg/10 μL/mouse/day, QD) in their right ears for 8 consecutive days (D1-D8). The animals in the control group were intradermally injected with an equal volume of physiological saline solution (10 μL/mouse/day, QD) in the right ear for 8 consecutive days (D1-D8). For the modeling group, the vehicle and test drug were administered orally at the same time, twice a day (Bid), with an interval of 6 h, for 8 consecutive days (D1-D8). During the dosing period, the animal body weight was monitored every two days. On D1, D3, D5, D7 (all before IL-23 injection), and D9, the thickness of the mouse right ear was measured and the auricle appearance was observed and scored. At the end of the experiment (Day 10), the ear on the side where the model was created was taken, and the ear was punched along the edge of the auricle with an 8 mm punch to obtain a piece of ear which was weighed. The piece of ear from the right ear was fixed with formalin and then subjected to histopathological examination (H&E) staining.

[2] = Pharmacokinetic (PK) test in mice; assay type: in vivo; details: mouse, plasma, male balb/c mice, intravenous 1 mg/kg, gavage 3 mg/kg
Protocol: The clear solution obtained after dissolving the test compound was administered to male mice (balb/c) via tail vein injection and gavage respectively. After administration of the test compound, blood samples were collected from mandibular veins for the intravenous injection group (1 mg/kg) at 0.083, 0.25, 0.5, 1, 2, 4, 8 and 24 h and for the gavage group (3 mg/kg) was at 0.25, 0.5, 1, 2, 4, 6, 8 and 24 h, respectively, and centrifuged to obtain plasma. The LC-MS/MS method was used to determine the blood drug concentration, and the WinNonlin™ Version 6.3 pharmacokinetic software was used to calculate the relevant pharmacokinetic parameters by the non-compartmental model linear logarithmic trapezoidal method.

[3] = 10 mg/kg oral gavage Bid, day 1
[4] = 10 mg/kg oral gavage Bid, day 3
[5] = 10 mg/kg oral gavage Bid, day 5
[6] = 10 mg/kg oral gavage Bid, day 7
[7] = 10 mg/kg oral gavage Bid, day 9
[8] = 20 mg/kg oral gavage Bid, day 1
[9] = 20 mg/kg oral gavage Bid, day 3
[10] = 20 mg/kg oral gavage Bid, day 5
[11] = 20 mg/kg oral gavage Bid, day 7
[12] = 20 mg/kg oral gavage Bid, day 9
[13] = 50 mg/kg oral gavage Bid, day 1
[14] = 50 mg/kg oral gavage Bid, day 3
[15] = 50 mg/kg oral gavage Bid, day 5
[16] = 50 mg/kg oral gavage Bid, day 7
[17] = 50 mg/kg oral gavage Bid, day 9

## Cn1cc(-c2cn3nccc3c(-c3cnn([C@]4(CC#N)CC5(C[C@H](C#N)C5)C4)c3)n2)cn1 (stereo partly drawn) [Compound 1]
[1]; [3]
  Ear comprehensive score: 0.00 ± 0.00
  Ear thickness (mm): 0.189 ± 0.006 mm
  Weight: 19.77 ± 0.59 g
[1]; [4]
  Ear comprehensive score: 0.00 ± 0.00
  Ear thickness (mm): 0.287 ± 0.018 mm
  Weight: 19.69 ± 0.57 g
[1]; [5]
  Ear comprehensive score: 0.60 ± 0.52
  Ear thickness (mm): 0.311 ± 0.013 mm
  Weight: 20.02 ± 0.77 g
[1]; [6]
  Ear comprehensive score: 1.70 ± 1.06
  Ear thickness (mm): 0.373 ± 0.030 mm
  Weight: 19.69 ± 0.63 g
[1]; [7]
  Ear comprehensive score: 2.60 ± 1.43
  Ear thickness (mm): 0.430 ± 0.048 mm
  Weight: 20.04 ± 0.72 g
[1]; 10 mg/kg oral gavage Bid
  Ear weight: 19.16 ± 1.56 mg
[1]; [8]
  Ear comprehensive score: 0.00 ± 0.00
  Ear thickness (mm): 0.190 ± 0.009 mm
  Weight: 19.77 ± 0.54 g
[1]; [9]
  Ear comprehensive score: 0.00 ± 0.00
  Ear thickness (mm): 0.289 ± 0.028 mm
  Weight: 19.85 ± 0.78 g
[1]; [10]
  Ear comprehensive score: 0.60 ± 0.70
  Ear thickness (mm): 0.306 ± 0.018 mm
  Weight: 20.13 ± 0.78 g
[1]; [11]
  Ear comprehensive score: 1.40 ± 0.52
  Ear thickness (mm): 0.350 ± 0.025 mm
  Weight: 19.80 ± 0.92 g
[1]; [12]
  Ear comprehensive score: 1.50 ± 0.71
  Ear thickness (mm): 0.381 ± 0.032 mm
  Weight: 20.27 ± 0.90 g
[1]; 20 mg/kg oral gavage Bid
  Ear weight: 18.76 ± 1.62 mg
[1]; [13]
  Ear comprehensive score: 0.00 ± 0.00
  Ear thickness (mm): 0.193 ± 0.006 mm
  Weight: 19.78 ± 0.53 g
[1]; [14]
  Ear comprehensive score: 0.00 ± 0.00
  Ear thickness (mm): 0.279 ± 0.024 mm
  Weight: 19.85 ± 0.68 g
[1]; [15]
  Ear comprehensive score: 0.10 ± 0.32
  Ear thickness (mm): 0.289 ± 0.025 mm
  Weight: 20.41 ± 0.70 g
[1]; [16]
  Ear comprehensive score: 1.40 ± 0.70
  Ear thickness (mm): 0.338 ± 0.023 mm
  Weight: 20.15 ± 0.56 g
[1]; [17]
  Ear comprehensive score: 1.00 ± 0.47
  Ear thickness (mm): 0.352 ± 0.032 mm
  Weight: 20.28 ± 0.76 g
[1]; 50 mg/kg oral gavage Bid
  Ear weight: 17.63 ± 1.47 mg
[2]; oral
  bioavailability: 88.7%
[2]
  AUC(0-inf): 7.67 µM·h
[2]; read-out: Cl (clearance rate)
  clearance: 15.6 mL/min/kg
[2]; read-out: Cmax (peak concentration)
  Cmax: 3.04 µM
[2]; read-out: T1/2 (half-life) (converted)
  half-life: 143 min
[2]; read-out: Vd (distribution volume)
  Vd: 1.59 L/kg
